In patent publication US20250188043A1 (ReproNovo SA, priority 2023, published 2025):
In brackets after ≈: the same amount, converted by molar mass.

What was measured:
[1] = Excretion/elimination of 14C-labeled leflutrozole after oral dosing; format: in vivo; settings: female rats
[2] = Dissolution experiments with capsules; format: physicochemical; settings: drug substance particle sizes up to D90 ≤35 μm
[3] = test system: CYP3A4/5; assay: CYP inhibition, pooled human liver microsomes, probe substrates; format: in vitro ADME; settings: up to 100 μM
[4] = target: T1, CYP2C9 (Homo sapiens, UniProt P11712); assay: as above; format: in vitro ADME; settings: up to 100 μM
T1 construct: assessed by pooled human liver microsomes using enzyme selective probe substrates; from tissue; host or cells: pooled human liver microsomes
T1 sequence (P11712 whole entry): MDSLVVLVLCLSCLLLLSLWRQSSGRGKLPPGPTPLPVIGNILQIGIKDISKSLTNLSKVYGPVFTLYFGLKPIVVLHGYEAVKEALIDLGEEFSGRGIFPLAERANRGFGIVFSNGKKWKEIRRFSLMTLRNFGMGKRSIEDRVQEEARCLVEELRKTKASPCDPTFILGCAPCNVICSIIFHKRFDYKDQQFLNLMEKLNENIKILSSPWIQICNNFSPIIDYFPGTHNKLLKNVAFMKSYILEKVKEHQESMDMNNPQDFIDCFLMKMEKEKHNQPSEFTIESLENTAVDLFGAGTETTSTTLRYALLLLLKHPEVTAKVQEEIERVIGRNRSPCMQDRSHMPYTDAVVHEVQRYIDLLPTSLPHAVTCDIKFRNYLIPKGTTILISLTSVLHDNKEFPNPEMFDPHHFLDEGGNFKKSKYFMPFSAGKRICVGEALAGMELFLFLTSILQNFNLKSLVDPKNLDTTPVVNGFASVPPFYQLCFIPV

[5] = Pharmacokinetics in rats; format: in vivo; settings: for AUC(0-inf) / half-life / AUC(0-t) / Cmax: 1 mg/kg; for AUC(0-t): AUC 0-24^1/48^2 h
[6] = test system: obese and overweight men with hypogonadism and low total motile sperm count; assay: Extension of treatment to 48 total weeks; format: in vivo, human; settings: for serum testosterone change from baseline / serum testosterone level: 48-week period
[7] = target: T2, CYP2D6 (Homo sapiens, UniProt P10635); assay: CYP inhibition, pooled human liver microsomes, probe substrates; format: in vitro ADME; settings: up to 100 μM
T2 construct: assessed by pooled human liver microsomes using enzyme selective probe substrates; from tissue; host or cells: pooled human liver microsomes
T2 sequence (P10635 whole entry): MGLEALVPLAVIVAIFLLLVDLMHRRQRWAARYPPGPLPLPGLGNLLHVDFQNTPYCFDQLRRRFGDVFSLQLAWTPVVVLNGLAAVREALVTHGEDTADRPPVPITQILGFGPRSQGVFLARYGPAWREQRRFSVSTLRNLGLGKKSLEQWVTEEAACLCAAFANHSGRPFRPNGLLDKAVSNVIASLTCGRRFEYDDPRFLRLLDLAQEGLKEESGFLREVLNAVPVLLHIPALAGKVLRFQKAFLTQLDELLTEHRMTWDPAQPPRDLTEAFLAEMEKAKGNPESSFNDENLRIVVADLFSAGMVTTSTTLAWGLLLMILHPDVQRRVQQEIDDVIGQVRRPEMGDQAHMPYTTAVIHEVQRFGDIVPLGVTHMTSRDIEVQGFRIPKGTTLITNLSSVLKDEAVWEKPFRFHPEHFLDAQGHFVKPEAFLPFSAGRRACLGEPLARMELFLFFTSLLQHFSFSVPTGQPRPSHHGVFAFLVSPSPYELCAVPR

[8] = Metabolic stability in human liver microsomes; format: in vitro ADME
[9] = target: P-glycoprotein (Homo sapiens, UniProt P08183); assay: P-glycoprotein inhibition; format: in vitro ADME; settings: at concentrations above 200 μM
Sequence of P-glycoprotein (P08183 whole entry): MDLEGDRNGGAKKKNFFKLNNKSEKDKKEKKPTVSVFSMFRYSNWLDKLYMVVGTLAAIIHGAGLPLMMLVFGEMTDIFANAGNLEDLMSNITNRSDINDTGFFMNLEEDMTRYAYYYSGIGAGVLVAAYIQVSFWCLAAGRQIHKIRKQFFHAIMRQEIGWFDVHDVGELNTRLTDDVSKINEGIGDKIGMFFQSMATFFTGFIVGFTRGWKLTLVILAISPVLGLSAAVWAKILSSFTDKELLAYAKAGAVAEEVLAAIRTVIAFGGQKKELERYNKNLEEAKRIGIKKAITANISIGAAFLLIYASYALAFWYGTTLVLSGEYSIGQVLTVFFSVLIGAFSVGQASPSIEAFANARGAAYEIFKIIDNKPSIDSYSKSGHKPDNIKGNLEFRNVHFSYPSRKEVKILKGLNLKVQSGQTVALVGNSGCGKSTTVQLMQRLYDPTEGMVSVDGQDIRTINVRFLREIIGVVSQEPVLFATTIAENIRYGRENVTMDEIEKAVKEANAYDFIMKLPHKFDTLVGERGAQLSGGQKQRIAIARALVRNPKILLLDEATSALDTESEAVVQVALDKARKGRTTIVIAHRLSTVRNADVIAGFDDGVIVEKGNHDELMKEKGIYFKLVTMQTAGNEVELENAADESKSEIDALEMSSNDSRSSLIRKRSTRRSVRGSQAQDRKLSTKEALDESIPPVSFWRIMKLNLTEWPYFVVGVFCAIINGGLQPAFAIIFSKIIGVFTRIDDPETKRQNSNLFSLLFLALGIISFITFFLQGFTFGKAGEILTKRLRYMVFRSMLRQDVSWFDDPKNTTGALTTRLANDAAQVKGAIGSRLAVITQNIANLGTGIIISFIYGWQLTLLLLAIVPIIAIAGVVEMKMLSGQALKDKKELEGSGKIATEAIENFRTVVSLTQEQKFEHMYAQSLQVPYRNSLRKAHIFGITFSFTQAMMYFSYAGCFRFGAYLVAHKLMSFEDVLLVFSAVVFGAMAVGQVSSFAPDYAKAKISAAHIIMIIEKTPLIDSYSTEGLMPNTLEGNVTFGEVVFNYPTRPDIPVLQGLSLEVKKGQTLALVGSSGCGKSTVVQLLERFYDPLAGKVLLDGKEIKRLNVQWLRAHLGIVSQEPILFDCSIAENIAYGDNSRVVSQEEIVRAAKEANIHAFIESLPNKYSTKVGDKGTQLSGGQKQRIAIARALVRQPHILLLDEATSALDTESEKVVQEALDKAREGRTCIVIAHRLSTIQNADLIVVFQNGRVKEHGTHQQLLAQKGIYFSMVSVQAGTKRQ

[10] = target: T3, breast cancer resistance protein (Homo sapiens, UniProt Q9UNQ0); assay: Breast cancer resistance protein inhibition; format: in vitro ADME; settings: at concentrations above 200 μM
T3 sequence (Q9UNQ0 1-655): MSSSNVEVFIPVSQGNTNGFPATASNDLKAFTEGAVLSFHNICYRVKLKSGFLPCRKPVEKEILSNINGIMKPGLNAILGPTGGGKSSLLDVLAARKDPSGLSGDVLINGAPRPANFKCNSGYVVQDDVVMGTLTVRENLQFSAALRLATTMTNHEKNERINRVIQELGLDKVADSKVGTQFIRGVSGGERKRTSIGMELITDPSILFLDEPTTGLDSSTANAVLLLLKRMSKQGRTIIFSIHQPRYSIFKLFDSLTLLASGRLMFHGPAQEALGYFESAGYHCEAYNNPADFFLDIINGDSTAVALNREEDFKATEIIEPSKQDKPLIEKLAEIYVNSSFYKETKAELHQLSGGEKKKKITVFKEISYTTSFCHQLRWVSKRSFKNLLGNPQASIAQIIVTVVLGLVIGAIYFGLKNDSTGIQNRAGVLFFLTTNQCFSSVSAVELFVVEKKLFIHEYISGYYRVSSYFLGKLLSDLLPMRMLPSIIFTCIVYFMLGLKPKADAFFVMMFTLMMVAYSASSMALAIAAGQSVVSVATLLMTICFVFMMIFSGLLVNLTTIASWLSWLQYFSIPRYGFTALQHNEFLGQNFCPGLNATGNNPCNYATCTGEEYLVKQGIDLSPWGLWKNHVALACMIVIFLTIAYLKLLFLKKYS

[11] = Intrinsic dissolution rate; format: physicochemical; settings: for Intrinsic DR value: 37° C., 50 rpm, 720 min
Procedure: The intrinsic dissolution rate is very low for Form A of leflutrozole, even in the presence of sodium dodecyl sulfate (SDS). The rate was determined in 0.1 N hydrochloric acid (HCl) and 0.001 N HCl.

[12] = Dynamic vapor sorption (DVS); format: physicochemical
Procedure: Crystalline Form A leflutrozole was determined to be non-hygroscopic.

[13] = Thermodynamic solubility; format: physicochemical; settings: thermodynamic from solid
[14] = rat, in vivo, iv, 1 mg/kg i.v., PEG200-0.9% Saline-solution 40/60
[15] = rat, in vivo, po, 1 mg/kg p.o., PEG200-water-solution 40/60
[16] = rat, in vivo, po, 1 mg/kg p.o., Suspension 0.5% HPC

N#Cc1ccc(C(F)(c2ccc(C#N)cc2)n2cncn2)cc1 [leflutrozole, 4-[(4-cyanophenyl)-fluoro-(1,2,4-triazol-1-yl)methyl]benzonitrile]
predominant mechanism of elimination [1]: metabolism
unchanged leflutrozole excreted via urine ([1]; oral dosing): 9%
half-life ([1]; rat, plasma, oral): 78 h
influence of particle size on dissolution of capsules [2]: no relevant influence on dissolution
IC50 [3]: > 50 µM
IC50 [4]: > 50 µM
BAV 0-inf ([5]; 1 mg/kg p.o., Suspension 0.5% HPC): ≥100%
clearance [5, 14]: 0.383 mL/min
AUC(0-inf) [5, 14]: 123 µM·h
half-life ([5]; rat, in vivo, iv, 1 mg/kg i.v., PEG200-0.9% Saline-solution 40/60, read-out: T1/2 (converted)): 33.1 h
AUC(0-t) [5, 14]: 79.4 µM·h
AUC(0-inf) [5, 15]: 143 µM·h
Cmax [5, 15]: 1750 nM
half-life ([5]; rat, in vivo, po, 1 mg/kg p.o., PEG200-water-solution 40/60, read-out: T1/2 (converted)): 49.7 h
AUC(0-inf) [5, 16]: 245 µM·h
Cmax [5, 16]: 1810 nM
half-life ([5]; rat, in vivo, po, 1 mg/kg p.o., Suspension 0.5% HPC, read-out: T1/2 (converted)): 101 h
AUC(0-t) [5, 15]: 70.2 µM·h
AUC(0-t) [5, 16]: 163 µM·h
half-life ([5]; rat, in vivo, po, read-out: half-life (converted)): 101 h
bone specific alkaline phosphatase ([6]; 0.1 mg treatment arm only): significant increase
serum testosterone change from baseline ([6]; 0.1 mg): 243.0 ng/dL
serum testosterone level ([6]; 0.1 mg): 494.9 ng/dL
serum testosterone change from baseline ([6]; 0.3 mg): 290.6 ng/dL
serum testosterone level ([6]; 0.3 mg): 549.7 ng/dL
serum testosterone change from baseline ([6]; 1.0 mg): 376.2 ng/dL
serum testosterone level ([6]; 1.0 mg): 595.1 ng/dL
bone turnover markers (type I collagen C-telopeptides, procollagen-1 N-terminal propeptide, osteocalcin) ([6]; by week 48): increases in all leflutrozole treatment groups
change in BMD for the hip or femoral neck ([6]; week 48): no significant change
clinical meaning of reductions in BMD of the lumbar spine ([6]; week 48): did not indicate clinically meaningful osteopenia or osteoporosis
percentage decrease of lumbar BMD (DEXA) ([6]; week 48, any treatment group): ≥ −3%
IC50 [7]: > 50 µM
half-life [8]: 3.35 h
CLint scaled ([8]; read-out: intrinsic clearance (CLint)): 6.9 mL/min/kg
inhibition of P-glycoprotein [9]: not determined to be an inhibitor
inhibition of breast cancer resistance protein [10]: not determined to be an inhibitor

N#Cc1ccc(C(F)(c2ccc(C#N)cc2)n2cncn2)cc1 [Form A leflutrozole, 4-[(4-cyanophenyl)-fluoro-(1,2,4-triazol-1-yl)methyl]benzonitrile]
Intrinsic DR value ([11]; HCl 0.001N + 1% SDS): 0.0167 mg/min/cm^2
Intrinsic DR value ([11]; HCl 0.1N + 1% SDS): 0.0162 mg/min/cm^2
intrinsic dissolution rate (in words) ([11]; even in the presence of sodium dodecyl sulfate): very low
hygroscopicity [12]: non-hygroscopic
maximum water uptake (DVS) ([12]; 25° C., up to 95% relative humidity): < 0.2%
solubility thermodynamic ([13]; 0.05 M potassium biphthalate buffer, aqueous buffer, 0.05M buffer pH 3 - Potassium Biphthalate): < 30 µg/mL
solubility thermodynamic ([13]; 0.05 M potassium chloride buffer, aqueous buffer, 0.05M buffer pH 1 - Potassium Chloride): < 30 µg/mL
solubility thermodynamic ([13]; 0.05 M potassium phosphate buffer, aqueous buffer, 0.05M buffer pH 6.86 - Potassium Phosphate): < 30 µg/mL
solubility thermodynamic ([13]; 0.05 M sodium acetate buffer, aqueous buffer, 0.05M buffer pH 4.63 - Sodium Acetate): < 30 µg/mL
solubility thermodynamic ([13]; 1% Cremophor EL in water, aqueous with cosolvent or surfactant or cyclodextrin): < 30 µg/mL
solubility thermodynamic ([13]; 1% Tween 80 in water, aqueous with cosolvent or surfactant or cyclodextrin): < 30 µg/mL
solubility thermodynamic ([13]; 1% sodium dioctyl sulfosuccinate in water, aqueous with cosolvent or surfactant or cyclodextrin): 170 µg/mL (≈ 561 µM)
solubility thermodynamic ([13]; 1% sodium lauryl sulfate in water, aqueous with cosolvent or surfactant or cyclodextrin): 470 µg/mL (≈ 1550 µM)
solubility thermodynamic ([13]; 10% Cremophor EL in water, aqueous with cosolvent or surfactant or cyclodextrin): 190 µg/mL (≈ 626 µM)
solubility thermodynamic ([13]; 10% PEG400 in water, aqueous with cosolvent or surfactant or cyclodextrin): < 30 µg/mL
solubility thermodynamic ([13]; 10% PG in water, aqueous with cosolvent or surfactant or cyclodextrin): < 30 µg/mL
solubility thermodynamic ([13]; 10% ethanol in water, aqueous with cosolvent or surfactant or cyclodextrin): < 30 µg/mL
solubility thermodynamic ([13]; 20% hydroxypropyl β-cyclodextrin in water, aqueous with cosolvent or surfactant or cyclodextrin): 870 µg/mL (≈ 2870 µM)
solubility thermodynamic ([13]; 20% sulfobutyl ether β-cyclodextrin (Captisol) in water, aqueous with cosolvent or surfactant or cyclodextrin): 1050 µg/mL (≈ 3460 µM)
solubility thermodynamic ([13]; Cremophor EL, organic solvent or mixture): 280 µg/mL (≈ 923 µM)
solubility thermodynamic ([13]; FaSSIF): < 30 µg/mL
solubility thermodynamic ([13]; FeSSIF): < 30 µg/mL
solubility thermodynamic ([13]; Miglyol, oil or lipid): 720 µg/mL (≈ 2370 µM)
solubility thermodynamic ([13]; SGF, simulated gastric fluid): < 30 µg/mL
solubility thermodynamic ([13]; aqueous buffer, 0.05M buffer pH 7.4 - Potassium Phosphate): < 30 µg/mL
solubility thermodynamic ([13]; aqueous buffer, 0.05M buffer pH 9 - Boric Acid): < 30 µg/mL
solubility thermodynamic ([13]; aqueous buffer, pH 12 - 0.1N Sodium Hydroxide): < 30 µg/mL
solubility thermodynamic ([13]; ethanol, organic solvent or mixture): 3840 µg/mL (≈ 12700 µM)
solubility thermodynamic ([13]; polyethylene glycol 400, organic solvent or mixture): 6230 µg/mL (≈ 20500 µM)
solubility thermodynamic ([13]; propylene glycol, organic solvent or mixture): 2270 µg/mL (≈ 7480 µM)
solubility thermodynamic ([13]; water): < 30 µg/mL
